Results reported in patent publication US12077503B2, “Substituted cyclic amides and their use as herbicides” (FMC CORPORATION, priority 2015, dated 2024).

What was measured:
Assay in all cases: Test E preemergence
Format in all cases: in vivo
[1] = tested on: nutsedge, yellow (yellow nutsedge, Cyperus esculentus); conditions: scale 0 to 100
Method in brief: (§1)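 Seeds sown in silt loam treated preemergence, or plants 2 to 18 cm tall in peat-based potting medium treated postemergence, with test chemical in a non-phytotoxic solvent mixture containing surfactant. Kept in greenhouse 14 to 21 d, then visually rated against controls on a 0–100 scale (0 no effect, 100 complete control).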

Kochia (Kochia scoparia) = conditions: scale 0 to 100
Method in brief: as §1

[2] = tested on: sandbur (southern sandbur, Cenchrus echinatus); conditions: scale 0 to 100
Method in brief: as §1

[3] = tested on: nightshade (eastern black nightshade, Solanum ptycanthum); conditions: scale 0 to 100
Method in brief: as §1

[4] = tested on: crabgrass, Brazil (Brazilian crabgrass, Digitaria horizontalis); conditions: scale 0 to 100
Method in brief: as §1

[5] = tested on: beggarticks (hairy beggarticks, Bidens pilosa); conditions: scale 0 to 100
Method in brief: as §1

soybean (Glycine max) = conditions: scale 0 to 100
Method in brief: as §1

[6] = tested on: goosegrass (Eleusine indica); conditions: scale 0 to 100
Method in brief: as §1

[7] = tested on: pigweed, palmer (palmer pigweed, Amaranthus palmeri); conditions: scale 0 to 100
Method in brief: as §1

[8] = tested on: dayflower, VA (Virginia dayflower, Commelina virginica); conditions: scale 0 to 100
Method in brief: as §1

[9] = tested on: velvetleaf (Abutilon theophrasti); conditions: scale 0 to 100
Method in brief: as §1

corn (Zea mays) = conditions: scale 0 to 100
Method in brief: as §1

[10] = tested on: surinam grass (Brachiaria decumbens); conditions: scale 0 to 100
Method in brief: as §1

[11] = tested on: waterhemp (common waterhemp, Amaranthus rudis); conditions: scale 0 to 100
Method in brief: as §1

[12] = tested on: horseweed (Conyza canadensis); conditions: 31 g ai/ha, scale 0 to 100
Method in brief: as §1

[13] = tested on: Panicum, fall (fall Panicum, Panicum dichotomiflorum); conditions: scale 0 to 100
Method in brief: as §1

[14] = tested on: ryegrass, Italian (Italian ryegrass, Lolium multiflorum); conditions: scale 0 to 100
Method in brief: as §1

[15] = tested on: field bindweed (Convolvulus arvensis); conditions: scale 0 to 100
Method in brief: as §1

[16] = tested on: lambsquarters (Chenopodium album); conditions: scale 0 to 100
Method in brief: as §1

[17] = tested on: crabgrass, large (large crabgrass, Digitaria sangumnalis); conditions: scale 0 to 100
Method in brief: as §1

## CN1CC(c2cccc(C(F)(F)F)c2)C(C(=O)Nc2ccccc2S(C)(=O)=O)C1=O (stereo not shown) [Compound 637]
[1]; 31 g ai/ha
  Plant response rating: Nutsedge, Yellow: 0
[1]; 62 g ai/ha
  Plant response rating: Nutsedge, Yellow: 0
[1]; 125 g ai/ha
  Plant response rating: Nutsedge, Yellow: 0
[1]; 250 g ai/ha
  Plant response rating: Nutsedge, Yellow: 35
Kochia (Kochia scoparia); 31 g ai/ha
  Plant response rating: Kochia: 0
Kochia (Kochia scoparia); 62 g ai/ha
  Plant response rating: Kochia: 40
Kochia (Kochia scoparia); 125 g ai/ha
  Plant response rating: Kochia: 90
Kochia (Kochia scoparia); 250 g ai/ha
  Plant response rating: Kochia: 90
[2]; 31 g ai/ha
  Plant response rating: Sandbur: 0
[2]; 62 g ai/ha
  Plant response rating: Sandbur: 35
[2]; 125 g ai/ha
  Plant response rating: Sandbur: 90
[2]; 250 g ai/ha
  Plant response rating: Sandbur: 90
[3]; 31 g ai/ha
  Plant response rating: Nightshade: 0
[3]; 62 g ai/ha
  Plant response rating: Nightshade: 15
[3]; 125 g ai/ha
  Plant response rating: Nightshade: 25
[3]; 250 g ai/ha
  Plant response rating: Nightshade: 40
[4]; 31 g ai/ha
  Plant response rating: Crabgrass, Brazil: 75
[4]; 62 g ai/ha
  Plant response rating: Crabgrass, Brazil: 85
[4]; 125 g ai/ha
  Plant response rating: Crabgrass, Brazil: 98
[4]; 250 g ai/ha
  Plant response rating: Crabgrass, Brazil: 95
[5]; 31 g ai/ha
  Plant response rating: Beggarticks: 0
[5]; 62 g ai/ha
  Plant response rating: Beggarticks: 0
[5]; 125 g ai/ha
  Plant response rating: Beggarticks: 0
[5]; 250 g ai/ha
  Plant response rating: Beggarticks: 0
Soybean (Glycine max); 31 g ai/ha
  Plant response rating: Soybean: 0
Soybean (Glycine max); 62 g ai/ha
  Plant response rating: Soybean: 10
Soybean (Glycine max); 125 g ai/ha
  Plant response rating: Soybean: 25
Soybean (Glycine max); 250 g ai/ha
  Plant response rating: Soybean: 35
[6]; 31 g ai/ha
  Plant response rating: Goosegrass: 0
[6]; 62 g ai/ha
  Plant response rating: Goosegrass: 0
[6]; 125 g ai/ha
  Plant response rating: Goosegrass: 65
[6]; 250 g ai/ha
  Plant response rating: Goosegrass: 90
[7]; 31 g ai/ha
  Plant response rating: Pigweed, Palmer: 0
[7]; 62 g ai/ha
  Plant response rating: Pigweed, Palmer: 0
[7]; 125 g ai/ha
  Plant response rating: Pigweed, Palmer: 0
[7]; 250 g ai/ha
  Plant response rating: Pigweed, Palmer: 65
[8]; 31 g ai/ha
  Plant response rating: Dayflower, VA: 0
[8]; 62 g ai/ha
  Plant response rating: Dayflower, VA: 0
[8]; 125 g ai/ha
  Plant response rating: Dayflower, VA: 0
[8]; 250 g ai/ha
  Plant response rating: Dayflower, VA: 20
[9]; 31 g ai/ha
  Plant response rating: Velvetleaf: 0
[9]; 62 g ai/ha
  Plant response rating: Velvetleaf: 0
[9]; 125 g ai/ha
  Plant response rating: Velvetleaf: 30
[9]; 250 g ai/ha
  Plant response rating: Velvetleaf: 35
Corn (Zea mays); 31 g ai/ha
  Plant response rating: Corn: 0
Corn (Zea mays); 62 g ai/ha
  Plant response rating: Corn: 0
Corn (Zea mays); 125 g ai/ha
  Plant response rating: Corn: 35
Corn (Zea mays); 250 g ai/ha
  Plant response rating: Corn: 70
[10]; 31 g ai/ha
  Plant response rating: Surinam Grass: 10
[10]; 62 g ai/ha
  Plant response rating: Surinam Grass: 50
[10]; 125 g ai/ha
  Plant response rating: Surinam Grass: 75
[10]; 250 g ai/ha
  Plant response rating: Surinam Grass: 90
[11]; 31 g ai/ha
  Plant response rating: Waterhemp: 50
[11]; 62 g ai/ha
  Plant response rating: Waterhemp: 40
[11]; 125 g ai/ha
  Plant response rating: Waterhemp: 65
[11]; 250 g ai/ha
  Plant response rating: Waterhemp: 85
[12]
  Plant response rating: Horseweed: 0
[13]; 31 g ai/ha
  Plant response rating: Panicum, Fall: 0
[13]; 62 g ai/ha
  Plant response rating: Panicum, Fall: 35
[13]; 125 g ai/ha
  Plant response rating: Panicum, Fall: 90
[13]; 250 g ai/ha
  Plant response rating: Panicum, Fall: 95
[14]; 31 g ai/ha
  Plant response rating: Ryegrass, Italian: 0
[14]; 62 g ai/ha
  Plant response rating: Ryegrass, Italian: 50
[14]; 125 g ai/ha
  Plant response rating: Ryegrass, Italian: 35
[14]; 250 g ai/ha
  Plant response rating: Ryegrass, Italian: 35
[15]; 31 g ai/ha
  Plant response rating: Field Bindweed: 0
[15]; 62 g ai/ha
  Plant response rating: Field Bindweed: 0
[15]; 125 g ai/ha
  Plant response rating: Field Bindweed: 0
[15]; 250 g ai/ha
  Plant response rating: Field Bindweed: 35
[16]; 62 g ai/ha
  Plant response rating: Lambsquarters: 0
[16]; 125 g ai/ha
  Plant response rating: Lambsquarters: 90
[16]; 250 g ai/ha
  Plant response rating: Lambsquarters: 80
[17]; 31 g ai/ha
  Plant response rating: Crabgrass, Large: 90
[17]; 62 g ai/ha
  Plant response rating: Crabgrass, Large: 95
[17]; 125 g ai/ha
  Plant response rating: Crabgrass, Large: 98
[17]; 250 g ai/ha
  Plant response rating: Crabgrass, Large: 98
